The subject of data set [1] is malignant lesions in human ovarian cancer patients. To be noted: intra-operative; cited from earlier work.
The conditions of data set [2]: instability of the thiourea bridge; cited from earlier work.
The target in data set [3] is T1, folate receptor (FR-α) on KB cells (Homo sapiens, UniProt P15328).
T1 construct: KB cells that overexpress FR-α were seeded in 24-well (100,000 cells/well) Falcon plates; host or cells: KB cells (human; described as a HeLa derivative)
The data set is described as follows: Competition binding with [3H]-folic acid on KB cells. Here is the method: KB cells that overexpress FR-α were seeded in 24-well (100,000 cells/well) Falcon plates and allowed to form monolayers over a period of 24 h. […] After incubating for 1 hour at 37° C., cells were rinsed with PBS (2×0.5 mL) and 1M trichloroacetic acid (1×0.5 mL) to remove any unbound radioactive materials. After adding 1% sodium dodecylsulfate in PBS (0.5 mL), cells were transferred into individual scintillation vials containing Ecolume scintillation cocktail (3.0 mL) and counted in a liquid scintillation analyzer. The relative binding affinities were calculated using a plot of cell bound radioactivity versus the concentration of the test article using Graph Pad Prism 4.
(§1) KB cells that overexpress FR-α were seeded in 24-well (100,000 cells/well) Falcon plates (BD Biosciences, CA) and allowed to form monolayers over a period of 12 h. […] After incubating for 1 h at 37° C., cells were rinsed with PBS (3×0.5 mL, Gibco, NY) to remove any unbound radioactive materials. After adding 0.25 M sodium hydroxide (0.5 mL) and incubating for 12 h at 4° C., cells were transferred into individual scintillation vials containing Ecolite scintillation cocktail (3.0 mL, MP Biomedicals, OH) and counted in a liquid scintillation analyzer (Packard). The relative binding affinities were calculated using a plot of % cell bound radioactivity versus the log concentration of the test article using GraphPad Prism 4.
as §1, with “12 hours.” for “12 h.”, “1 hour” for “1 h”, “12 hours” for “12 h”

A short description of data set [4]: Toxicity in healthy nude mice. In kind it is in vivo. The procedure: Seven-week-old healthy female nude mice (5 mice/group) were administered with 1 μmol of freshly prepared OTL-0038 or OTL-0039 dissolved in 100 μL of phosphate buffered saline via tail vein injection on day zero. Body weights and clinical observations were monitored prior to dosing and daily thereafter from day zero to 7. Any animals with a body weight loss of 20% or more over two consecutive days would be euthanized, but this was not necessary. The animals were euthanized by CO2 asphyxiation on day 7 and selected tissues (brain, heart, lung, liver, spleen, kidney, stomach, small intestine, large intestine, muscle, skin) were collected into vials containing 4% formalin. Formalin fixed tissues were sectioned into 10 μm thick sections and mounted onto Superfrost Plus™ slides (Fisher Scientific, Pittsburgh Pa.). After staining the slides with H&E, immunohistochemistry (IHC) analysis of the tissues was conducted to determine to the toxicity of OTL-0038 and OTL-0039.

T1 sequence (P15328 25-234): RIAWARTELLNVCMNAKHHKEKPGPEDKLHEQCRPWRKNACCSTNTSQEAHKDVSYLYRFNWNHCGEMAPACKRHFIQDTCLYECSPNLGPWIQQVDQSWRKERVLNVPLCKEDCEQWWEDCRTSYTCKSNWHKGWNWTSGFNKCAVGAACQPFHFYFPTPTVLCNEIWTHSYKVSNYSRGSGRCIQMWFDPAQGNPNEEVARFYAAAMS

Take `Nc1nc2ncc(CNc3ccc(C(=O)NC(CCC(=O)NCCNC(=S)Nc4ccc(-c5c6ccc(=O)cc-6oc6cc(O)ccc56)c(C(=O)O)c4)C(=O)O)cc3)nc2c(=O)[nH]1` (stereo not shown) [EC17, folate-ethelenediamine-fluorescein isothiocynate]: in data set [1], the “more malignant lesions removed with the dye than without it” value was approximately 5 × and the “pathology of resected fluorescent lesions” value was “confirmed by pathology to be malignant”. In addition, the “shelf-life stability” value in data set [2] is on record as “easily decomposes”.

`CC1(C)C(=CC=C2CCCC(C=CC3=[N+](CCCCS(=O)(=O)[O-])c4ccc(S(=O)(=O)O)cc4C3(C)C)=C2Oc2ccc(C[C@@H](NC(=O)c3ccc(NCc4cnc5nc(N)[nH]c(=O)c5n4)cc3)C(=O)O)cc2)N(CCCCS(=O)(=O)O)c2ccc(S(=O)(=O)O)cc21` [OTL-0039, PTE-D-Tyr-S0456]: in data set [3] (KB cells), the “affinity and specificity for folate receptor (words)” value was “lower affinity for folate receptor when compared to folic acid and OTL-0038”. This molecule yielded a Relative binding affinities in data set [3] (relative affinity of folic acid=1, <1 weaker) of 0.09. Also, the “toxicity (conclusion)” value in data set [4] (1 μmol (1000× clinical dose)) is given as “not toxic to animals”. Moreover, in data set [4] (1 μmol tail vein), the “skin colour immediately after the injection” value was “became green”. In data set [4] (1 μmol tail vein, day 0 to 7), the activity and behaviour result is reported as “behaved normally throughout the study”; the “body weights over the course of the study” value is reported as “remained stable”. The “lesions in tissues (IHC data)” value in data set [4] (1 μmol tail vein, day 7) is reported as “no lesions identified in any tissues”.

The values above are taken from patent US12133900B2, “Synthesis and composition of amino acid linking groups conjugated to compounds used for the targeted imaging of tumors” (Purdue Research Foundation, priority 2013, dated 2024).
